For orientation: IC50 means the concentration needed to halve the response being measured. Higher therefore signals lower potency.

These results are taken from patent publication US20260042755A1, “GPR6 INVERSE AGONISTS” (MapLight Therapeutics, Inc., priority 2022, published 2026).

The target of one assay is T1, GPR6 (Homo sapiens, UniProt P46095).
T1 construct: expressed in transfected cells; host or cells: CHO cells
The experiment in a line: GPR6 antagonist functional cAMP assay (LANCE Ultra cAMP TR-FRET, CHO cells stably expressing GPR6). The assay is classed as cell-based. The method, boiled down:
(§1)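 Read-out was TR-FRET cAMP signal at 665 nm after 1 h at room temperature, following 45 min compound exposure at 37 °C. Assay buffer contained 0.1% BSA and 150 μM Ro 20-1724. Antagonist IC50s were fitted with a 4-parameter logistic against DMSO and reference controls.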
A general note: Changes in cAMP serve as a functional read-out for many G protein-coupled receptors.

In the next assay the target is T2, GPR3 (Homo sapiens, UniProt P46089).
T2 construct: expressed in transfected cells; host or cells: CHO cells
T2 sequence (P46089 whole entry, species assumed): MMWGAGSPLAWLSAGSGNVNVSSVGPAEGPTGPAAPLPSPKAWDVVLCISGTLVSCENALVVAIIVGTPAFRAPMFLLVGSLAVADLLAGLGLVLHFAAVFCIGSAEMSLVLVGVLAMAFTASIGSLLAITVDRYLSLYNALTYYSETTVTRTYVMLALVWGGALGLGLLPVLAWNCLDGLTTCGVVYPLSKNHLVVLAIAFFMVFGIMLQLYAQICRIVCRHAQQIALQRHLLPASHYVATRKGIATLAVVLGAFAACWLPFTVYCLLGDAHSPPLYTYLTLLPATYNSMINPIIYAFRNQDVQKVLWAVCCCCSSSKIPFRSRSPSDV
Kind of assay: GPR3 antagonist functional cAMP assay (LANCE Ultra cAMP TR-FRET, CHO cells stably expressing GPR3). It counts as cell-based. The method, boiled down: as §1

Setting [1] is: CHO cells stably expressing GPR6, cAMP assay (Example 24).
Setting [2] is: CHO cells stably expressing GPR3, cAMP assay (Example 24).
Setting [3] is: CHO cells stably expressing GPR6, cAMP assay.
Setting [4] is: CHO cells stably expressing GPR3, cAMP assay.
Setting [5] is: procedure as described in Example 24.

T1 sequence (P46095 whole entry): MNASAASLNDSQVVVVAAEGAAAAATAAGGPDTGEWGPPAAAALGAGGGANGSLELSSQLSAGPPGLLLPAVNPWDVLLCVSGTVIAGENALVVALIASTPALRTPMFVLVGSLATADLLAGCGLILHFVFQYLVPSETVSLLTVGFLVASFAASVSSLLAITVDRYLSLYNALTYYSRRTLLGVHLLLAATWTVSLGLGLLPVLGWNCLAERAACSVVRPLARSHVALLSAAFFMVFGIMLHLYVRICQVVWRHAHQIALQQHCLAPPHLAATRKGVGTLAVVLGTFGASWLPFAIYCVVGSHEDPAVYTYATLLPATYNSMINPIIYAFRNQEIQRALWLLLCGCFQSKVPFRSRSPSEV

As to `Cn1cc(-c2nc3cnc(CO)cc3nc2N2CCN(Cc3ccc(F)cc3F)CC2)cn1` [Compound 194, (2-{4-[(2,4-difluorophenyl)methyl]piperazin-1-yl}-3-(1-methyl-1H-pyrazol-4-yl)pyrido[3,4-b]pyrazin-7-yl)methanol], the IC50 lay in the range of 0.1 to 1 µM at GPR6 (setting [1]) and 1 to 30 µM against GPR3 (setting [2]).

`CC(C)(O)[C@@H](O)c1cc2nc(-c3cnn(C4CC4)c3)c(N3CCN(Cc4ccccc4F)CC3)nc2cn1` (single isomer, unassigned) [Compound 746]: the figures for the half-maximal inhibitory concentration (IC50) against GPR6 (procedure of Example 24) and on GPR3 (procedure of Example 24) were 0.1 to 1 µM and 1 to 30 µM, respectively.

`CC(=O)N1CCc2nc(N3CCC(Oc4ccc(F)cc4F)CC3)c(-c3cnc4n3CCN(C)C4)nc2C1` [Compound 90, 1-(2-(4-(2,4-difluorophenoxy)piperidin-1-yl)-3-(7-methyl-5,6,7,8-tetrahydroimidazo[1,2-a]pyrazin-3-yl)-7,8-dihydropyrido[3,4-b]pyrazin-6(5H)-yl)ethan-1-one]: the half-inhibitory concentration (IC50) at GPR6 (setting [1]) and at GPR3 (setting [2]) was 1 to 30 µM each time.

For `CC(=O)N1CCc2nc(N3CCC(Oc4ccc(F)cc4F)CC3)c(-c3c[nH]c(C)n3)nc2C1` [Compound 116, 1-{2-[4-(2,4-difluorophenoxy)piperidin-1-yl]-3-(2-methyl-1H-imidazol-4-yl)-5H,6H,7H,8H-pyrido[3,4-b]pyrazin-6-yl}ethan-1-one], the IC50 at GPR6 (setting [1]) lay within 0.1 to 1 µM; at GPR3 (setting [2]) it was 1 to 30 µM.

As to `Cn1cc(-c2nc3cc([C@](C)(O)CO)ncc3nc2N2CCC(Oc3ccc(F)cc3F)CC2)cn1` (single isomer, unassigned) [Compound 691], the 50% inhibitory concentration (IC50) against GPR6 (procedure of Example 24) was in the range of 0.1 to 1 µM; against GPR3 (procedure of Example 24), 1 to 30 µM.

Consider `CC(=O)N1CCc2nc(N3CCC(Cc4ccc(F)cc4F)C3)c(-c3cnn(C)c3)nc2C1` (stereo not drawn) [Compound 738, 1-(2-{3-[(2,4-difluorophenyl)methyl]-1-pyrrolidinyl}-3-(1-methyl-4-pyrazolyl)-5,6,7,8-tetrahydro-1,4,6-triaza-6-naphthyl)-1-ethanone], for which the 50% inhibitory concentration (IC50) at GPR6 (procedure of Example 24) and against GPR3 (procedure of Example 24) was 1 to 30 µM throughout.

For `CC(=O)OC1CCCN(c2nc3c(nc2-c2cnn(C)c2)CN(Cc2ccccc2)CC3)C1` (stereo not drawn) [Compound 278, 1-[6-benzyl-3-(1-methyl-1H-pyrazol-4-yl)-5H,6H,7H,8H-pyrido[3,4-b]pyrazin-2-yl]piperidin-3-yl acetate], the IC50 at GPR6 (procedure of Example 24) and on GPR3 (procedure of Example 24) was 1 to 30 µM in each case.

Consider `CC(=O)N1CCc2nc(N3CCC(Oc4ccc(F)cc4F)CC3)c(-c3ccc4c(n3)OCC4)nc2C1` [Compound 326, 1-{2-[4-(2,4-difluorophenoxy)piperidin-1-yl]-3-{2H,3H-furo[2,3-b]pyridin-6-yl}-5H,6H,7H,8H-pyrido[3,4-b]pyrazin-6-yl}ethan-1-one], for which the IC50 against GPR6 (procedure of Example 24) and against GPR3 (procedure of Example 24) was 1 to 30 µM throughout.

For `Cn1cc(-c2nc3c(O)nccc3nc2N2CCC(Oc3ccc(F)cc3F)CC2)cn1` [Compound 376, 2-[4-(2,4-difluorophenoxy)piperidin-1-yl]-3-(1-methyl-1H-pyrazol-4-yl)pyrido[3,4-b]pyrazin-5-ol], the concentration for half-maximal inhibition (IC50) against GPR6 (procedure of Example 24) and at GPR3 (procedure of Example 24) was 1 to 30 µM in each case.

`OCCN1CCc2nc(N3CCC(Oc4ccc(F)cc4F)CC3)c(-c3cn[nH]c3)nc2C1` [Compound 141, 2-{2-[4-(2,4-difluorophenoxy)piperidin-1-yl]-3-(1H-pyrazol-4-yl)-5H,6H,7H,8H-pyrido[3,4-b]pyrazin-6-yl}ethan-1-ol]: the IC50 against GPR6 (setting [1]) and against GPR3 (setting [2]) was 1 to 30 µM in each case.

Regarding `CC(=O)N1CCc2nc(N3CCN(Cc4ccccn4)CC3)c(-c3cnn(C)c3)nc2C1` [Compound 511, 1-[3-(1-methyl-4-pyrazolyl)-2-{4-[(2-pyridyl)methyl]-1-piperazinyl}-5,6,7,8-tetrahydro-1,4,6-triaza-6-naphthyl]-1-ethanone], the concentration for half-maximal inhibition (IC50) at GPR6 (setting [3]) and against GPR3 (setting [4]) was at least 30 µM throughout.

Turning to `Cn1cc(-c2nc3cnccc3nc2N2CCc3c(cnn3-c3ccc(F)cc3F)C2)cn1` [Compound 788, 1-(2,4-difluorophenyl)-5-[3-(1-methyl-4-pyrazolyl)-1,4,6-triaza-2-naphthyl]-4,5,6,7-tetrahydro-1H-1,2,5-triazaindene], the IC50 on GPR6 (procedure of Example 24) and at GPR3 (procedure of Example 24) was at least 30 µM each time.

As for `Cn1cc(-c2nc3c(nc2N2CC[C@H](Oc4ccc(F)cc4F)[C@H](F)C2)CCN(Cc2ccccc2)C3)cn1` (single isomer, unassigned) [Compound 333], the values for the half-maximal inhibitory concentration (IC50) on GPR6 (procedure of Example 24) and at GPR3 (procedure of Example 24) were 1 to 30 µM and at least 30 µM, respectively.

Take `COCn1ccnc1-c1nc2c(nc1N1CCC(Oc3ccc(F)cc3F)CC1)CCN(C(C)=O)C2` [Compound 67, 1-{2-[4-(2,4-difluorophenoxy)piperidin-1-yl]-3-[1-(methoxymethyl)-1H-imidazol-2-yl]-5H,6H,7H,8H-pyrido[3,4-b]pyrazin-6-yl}ethan-1-one]: the IC50 against GPR6 (setting [1]) and against GPR3 (setting [2]) was 1 to 30 µM each time.

Take `CC(=O)N1CC=C(c2nc3c(nc2N2CCC(Oc4ccc(F)cc4F)CC2)CCN(C(C)=O)C3)CC1` [Compound 69, 1-(3-(1-acetyl-1,2,3,6-tetrahydropyridin-4-yl)-2-(4-(2,4-difluorophenoxy)piperidin-1-yl)-7,8-dihydropyrido[3,4-b]pyrazin-6(5H)-yl)ethan-1-one]: the IC50 on GPR6 (setting [1]) and on GPR3 (setting [2]) was 1 to 30 µM in each case.

In the case of `CC(=O)N1CCc2nc(N3CCC(Oc4ccc(F)cc4F)CC3)c(-c3cnn4c3CN(C(C)=O)CC4)nc2C1` [Compound 107, 1-(3-{6-acetyl-2-[4-(2,4-difluorophenoxy)piperidin-1-yl]-5H,6H,7H,8H-pyrido[3,4-b]pyrazin-3-yl}-4H,5H,6H,7H-pyrazolo[1,5-a]pyrazin-5-yl)ethan-1-one], the half-inhibitory concentration (IC50) on GPR6 (setting [1]) and against GPR3 (setting [2]) was 1 to 30 µM each time.

In the case of `CC(=O)N1CCc2nc(N3CCC(Oc4ccc(F)cc4F)CC3)c(-c3ccn(C)c(=O)c3)nc2C1` [Compound 78, 4-{6-acetyl-2-[4-(2,4-difluorophenoxy)piperidin-1-yl]-5H,6H,7H,8H-pyrido[3,4-b]pyrazin-3-yl}-1-methyl-1,2-dihydropyridin-2-one], the IC50 against GPR6 (setting [1]) and against GPR3 (setting [2]) was 1 to 30 µM throughout.

On to `O=c1cccc(-c2nc3ccncc3nc2N2CCC(Oc3ccc(F)cc3F)CC2)[nH]1` [Compound 99, 6-{3-[4-(2,4-difluorophenoxy)piperidin-1-yl]pyrido[3,4-b]pyrazin-2-yl}-1,2-dihydropyridin-2-one], for which the IC50 at GPR6 (setting [1]) and against GPR3 (setting [2]) was 1 to 30 µM in each case.

Regarding `COc1ncc(-c2nc3c(nc2N2CCC(Oc4ccc(F)cc4F)CC2)CCN(C(C)=O)C3)cn1` [Compound 190, 1-{2-[4-(2,4-difluorophenoxy)piperidin-1-yl]-3-(2-methoxypyrimidin-5-yl)-5H,6H,7H,8H-pyrido[3,4-b]pyrazin-6-yl}ethan-1-one], the concentration for half-maximal inhibition (IC50) on GPR6 (setting [1]) was 0.1 to 1 µM; against GPR3 (setting [2]), 1 to 30 µM.

In the case of `CC(C)(O)C(C)(O)c1cc2nc(N3CCC(Oc4ccc(F)cc4F)CC3)c(-c3cnn(C(F)F)c3)nc2cn1` (stereo not drawn) [Compound 635, 2-{3-[1-(difluoromethyl)-4-pyrazolyl]-2-[4-(2,4-difluorophenoxy)-1-piperidyl]-1,4,6-triaza-7-naphthyl}-3-methyl-2,3-butanediol], the values for the half-maximal inhibitory concentration (IC50) against GPR6 (procedure of Example 24) and against GPR3 (procedure of Example 24) were 0.1 to 1 µM and 1 to 30 µM, respectively.

On to `CC(=O)N1CCc2nc(N3CCC(Oc4ccc(F)cc4F)CC3)c(-c3cnn(C)c3)nc2C1` [Compound 44, 1-{2-[4-(2,4-difluorophenoxy)piperidin-1-yl]-3-(1-methyl-1H-pyrazol-4-yl)-5H,6H,7H,8H-pyrido[3,4-b]pyrazin-6-yl}ethan-1-one], for which the results for the IC50 against GPR6 (setting [5]) and against GPR3 (setting [5]) were 0.1 to 1 µM and 1 to 30 µM, respectively.

Regarding `CC(=O)N1CCc2nc(N3CCC(Oc4ccc(F)cc4F)CC3)c(-c3cnccn3)nc2C1` [Compound 19, 1-{2-[4-(2,4-difluorophenoxy)piperidin-1-yl]-3-(pyrazin-2-yl)-5H,6H,7H,8H-pyrido[3,4-b]pyrazin-6-yl}ethan-1-one], the IC50 lay in the range of 1 to 30 µM on GPR6 (setting [5]) and 0.1 to 1 µM against GPR3 (setting [5]).

Regarding `Cn1cc(-c2nc3cnc(Cl)cc3nc2N2CCC(Oc3ccc(F)cc3F)CC2)cn1` [Compound 289, 7-chloro-2-(4-(2,4-difluorophenoxy)piperidin-1-yl)-3-(1-methyl-1H-pyrazol-4-yl)pyrido[3,4-b]pyrazine], the IC50 on GPR6 (procedure of Example 24) and against GPR3 (procedure of Example 24) was 1 to 30 µM throughout.

`CC(C)(O)C(=O)N1CCc2nc(N3CCC(Oc4ccc(F)cc4F)CC3)c(-c3cn[nH]c3)nc2C1` [Compound 175, 1-{2-[4-(2,4-difluorophenoxy)piperidin-1-yl]-3-(1H-pyrazol-4-yl)-5H,6H,7H,8H-pyrido[3,4-b]pyrazin-6-yl}-2-hydroxy-2-methylpropan-1-one]: the IC50 lay within 0.1 to 1 µM against GPR6 (setting [1]) and 1 to 30 µM at GPR3 (setting [2]).

As to `CC(=O)N1CCc2nc(-c3cccc(=O)[nH]3)c(N3CCC(Oc4ccc(F)cc4F)CC3)nc2C1` [Compound 167, 6-{6-acetyl-3-[4-(2,4-difluorophenoxy)piperidin-1-yl]-5H,6H,7H,8H-pyrido[3,4-b]pyrazin-2-yl}-1,2-dihydropyridin-2-one], the concentration for half-maximal inhibition (IC50) against GPR6 (setting [1]) and against GPR3 (setting [2]) was 1 to 30 µM each time.

Take `COC[C@@H]1CN(Cc2ccc(F)cc2F)CCN1c1nc2ccncc2nc1-c1cnn(C)c1` (single isomer, unassigned) [Compound 240]: the IC50 against GPR6 (setting [1]) and on GPR3 (setting [2]) was 1 to 30 µM each time.

With `CC(C)(O)C(O)c1cc2nc(-c3cnn(C(F)F)c3)c(N3CCN(Cc4ccc(F)cc4F)CC3)nc2cn1` (single isomer, unassigned) [Compound 585], the 50% inhibitory concentration (IC50) against GPR6 (setting [3]) is below 0.1 µM; against GPR3 (setting [4]) it was 0.1 to 1 µM.
